Measured values published in the NIST ThermoML archive (doi:10.1016/j.tca.2018.05.009).
Several values for one entry are separate records, joined by “and”; a condition that tells them apart may be missing. Equal entries are not always repeated. ± gives the expanded uncertainty stated by the source.

Conditions: Liquid, Transpiration method

CC(=O)C(=O)O [2-oxopropanoic acid]
Conditions	vapor or sublimation pressure
308.2 K	0.2899 ± 0.018 kPa
313.3 K	0.3753 ± 0.023 kPa and 0.3771 ± 0.023 kPa
315.9 K	0.434 ± 0.027 kPa
316.8 K	0.45 ± 0.028 kPa
318.3 K	0.509 ± 0.032 kPa
320.9 K	0.599 ± 0.038 kPa and 0.597 ± 0.037 kPa
325.8 K	0.798 ± 0.05 kPa
330.8 K	1.092 ± 0.068 kPa
333.2 K	1.274 ± 0.08 kPa
336.4 K	1.519 ± 0.094 kPa

COC(=O)C(C)=O [methyl 2-oxopropanoate]
Conditions	vapor or sublimation pressure
279.4 K	0.177 ± 0.011 kPa and 0.1749 ± 0.011 kPa
280.9 K	0.1942 ± 0.012 kPa
282.4 K	0.2279 ± 0.015 kPa
283.8 K	0.2536 ± 0.016 kPa
286.2 K	0.2982 ± 0.019 kPa and 0.293 ± 0.018 kPa
287 K	0.3042 ± 0.019 kPa
289.2 K	0.3569 ± 0.023 kPa
291 K	0.426 ± 0.027 kPa
294.9 K	0.527 ± 0.033 kPa
298.9 K	0.706 ± 0.045 kPa
302.9 K	0.919 ± 0.058 kPa
307.8 K	1.227 ± 0.077 kPa
